2 compounds from patent US7226766B2, “S-methylcysteine, S-ethylcysteine, and related S-alkylthiols as antagonists to the effects of S-nitrosothiols and nitric oxide” (University of Iowa Research Foundation, priority 2001, dated 2007) can be followed below.

Experiment [1] relates to Sprague-Dawley rats treated with lipopolysaccharide (septic shock model). As to the kind of experiment: experimental model of septic shock: lipopolysaccharide-treated conscious rats, hemodynamic measurements and deaths. The class given is in vivo, rat. Particulars: for number of treated rats that died: lipopolysaccharide-treated rats, 22 rats received L-NAME, 12 rats S-methyl cysteine; for mean arterial pressure after treatment: rats 72 hours after lipopolysaccharide 0.5 mg/kg i.p., L-NAME 25 μmole/kg or S-methyl-L-cysteine 200 nmol/kg infusion for 10 minutes + 500 nmol/kg bolus; for total peripheral resistance after treatment (in words): L-NAME 25 μmole/kg or S-methyl-L-cysteine 200 nmol/kg infusion + 500 nmol/kg bolus. The method, then: Male 16 week old Sprague-Dawley rats were anesthetized for surgical placement of intraaortic pressure tranducers and Dopplar flow probes around the abdominal aorta and the left main coronary artery. After 48 hours of recovery baseline measurements of arterial blood pressure, cardiac output (as Dopplar flow), and coronary blood flow (Dopplar) were obtained in conscious unrestrained animals. The rats were then treated with intraperotoneal injections of purified lipopolysaccharide 0.5 mg/kg. After 72 hours when the induction of iNOS had produced a fall in blood pressure, measurements were repeated. Each rat then received either 25 μmole/kg of the nitric oxide synthase inhibitor L-NAME or an infusion of 200 nmol/kg of S-methyl-L-cysteine for 10 minutes followed by a 500 nmol/kg bolus dose of S-methyl-L-cysteine. The measurements were then repeated a third time.

In experiment [2] the test system is hypotensive effects of infused S-nitrosocysteine. Kind of experiment: inhibition of the hypotensive effects of infused S-nitrosocysteine. Particulars: in vivo.
The mark [3] stands for this setting: rats 72 hours after lipopolysaccharide.
The mark [4] stands for this setting: rats 72 hours after lipopolysaccharide, L-NAME 25 μmole/kg.

Take `CSC[C@H](N)C(=O)O` [S-methyl-L-cysteine]: in experiment [1], the “number of treated rats that died” value was “none died” and the “mean arterial pressure after treatment” value is on record as “attenuated the hypotension induced by lipopolysaccharide”. Also, in experiment [1] (listed as S-methyl cysteine), the “mean arterial pressure after treatment” value was “returned mean arterial pressure to baseline values”. For the same compound, the “total peripheral resistance after treatment (in words)” value in experiment [1] (setting [3]) is recorded as “returned to normal values”. Besides, the “coronary blood flow after treatment (in words)” value in experiment [1] (rats 72 hours after lipopolysaccharide, S-methyl-L-cysteine 200 nmol/kg infusion for 10 minutes + 500 nmol/kg bolus) was “to pre-treatment values”. Further, the “effect on the hypotensive effects of infused S-nitrosocysteine” value in experiment [2] is reported as “inhibit the hypotensive effects of infused S-nitrosocysteine”.
For `COC(=O)[C@@H](N)CCCNC(=N)N[N+](=O)[O-]` [L-NAME, Nω-nitro-L-arginine methyl ester, reference compound], in experiment [1], the “number of treated rats that died” value was 7 and the “mean arterial pressure after treatment” value is recorded as “returned mean arterial pressure to baseline values”. Moreover, in experiment [1] (setting [4]), the “coronary resistance after treatment” value is recorded as “about 160 % of baseline values”, the “heart rate after treatment” value was “about 60 % of the pre-treatment values” and the “total peripheral resistance after treatment” value was “about 160 % of baseline values”. Besides, the “total peripheral resistance after treatment (in words)” value in experiment [1] (setting [3]) is “increased total peripheral resistance far above normal”. In addition, the “coronary blood flow after treatment” value in experiment [1] (rats 72 hours after lipopolysaccharide, L-NAME 25 μmole/kg, Doppler) was “about 60 % of the pre-treatment values”. Moreover, in experiment [1] (rats 72 hours after lipopolysaccharide, L-NAME 25 μmole/kg, Doppler flow), the “cardiac output after treatment” value is “about 60 % of the pre-treatment values”.
